Assay: Antiviral activity was evaluated by RT (reverse transcriptase) activity in cells acutely infected with HIV-1

SMILES	IC50 [nM]
CCCC(=O)NC1=NN(C)c2ncnc3c2c1cn3C1O[C@H](CO)[C@@H](O)[C@H]1O (stereo partly drawn)	500
CN1N=C(NC(=O)c2ccccc2)c2cn(C3O[C@H](CO)[C@@H](O)[C@H]3O)c3ncnc1c23 (stereo partly drawn)	> 100000
CCC(=O)NC1=NN(C)c2ncnc3c2c1cn3C1O[C@H](CO)[C@@H](O)[C@H]1O (stereo partly drawn)	8400
CC(C)C(=O)NC1=NN(C)c2ncnc3c2c1cn3C1O[C@H](CO)[C@@H](O)[C@H]1O (stereo partly drawn)	8000
CC(=O)NC1=NN(C)c2ncnc3c2c1cn3C1O[C@H](CO)[C@@H](O)[C@H]1O (stereo partly drawn)	6800
CN1N=C(NC(=O)C(C)(C)C)c2cn(C3O[C@H](CO)[C@@H](O)[C@H]3O)c3ncnc1c23 (stereo partly drawn)	> 100000

Further lines, results first:

IC50 [nM]	SMILES
350	CCCCCC(=O)NC1=NN(C)c2ncnc3c2c1cn3C1O[C@H](CO)[C@@H](O)[C@H]1O (stereo partly drawn)
35	CCCCCCC(=O)NC1=NN(C)c2ncnc3c2c1cn3C1O[C@H](CO)[C@@H](O)[C@H]1O (stereo partly drawn)
800	CCCCC(=O)NC1=NN(C)c2ncnc3c2c1cn3C1O[C@H](CO)[C@@H](O)[C@H]1O (stereo partly drawn)

Assay: Antiviral activity was evaluated by Reverse transcriptase activity in cells acutely infected with HIV-1

IC50 [nM]	SMILES
1000	CCCCCCCCCCCC(=O)NC1=NN(C)c2ncnc3c2c1cn3C1O[C@H](CO)[C@@H](O)[C@H]1O (stereo partly drawn)
100	CCCCCCCC(=O)NC1=NN(C)c2ncnc3c2c1cn3C1O[C@H](CO)[C@@H](O)[C@H]1O (stereo partly drawn)
800	CCCCCCCCC(=O)NC1=NN(C)c2ncnc3c2c1cn3C1O[C@H](CO)[C@@H](O)[C@H]1O (stereo partly drawn)
250	CCCCCCCCCC(=O)NC1=NN(C)c2ncnc3c2c1cn3C1O[C@H](CO)[C@@H](O)[C@H]1O (stereo partly drawn)
